In patent US20240270762A1, “PENICILLIN-BINDING PROTEIN INHIBITORS” (priority 2021, published 2024):
Values after ≈ are worked out from the molar mass of the structure shown. Read-outs that look alike come from different tables or passages of the source.

Experiments:
N. gonorrhoeae MS11 = experiment: Liquid broth MIC in Fastidious broth; conditions: Neisseria gonorrhoeae
N. gonorrhoeae WHO Z = experiment: Liquid broth MIC in Fastidious broth; conditions: Neisseria gonorrhoeae
[1] = biological target: T1, PBP3 from Acinetobacter baumannii (ATCC 19606) (Acinetobacter baumannii, UniProt A0ABX6CK25); experiment: Bocillin-FL fluorescence polarization competition binding, A. baumannii PBP3; conditions: fluorescence polarization competition binding assay using Bocillin-FL; read-out: A. baumannii PBP3 Potency
T1 sequence (A0ABX6CK25 64-610): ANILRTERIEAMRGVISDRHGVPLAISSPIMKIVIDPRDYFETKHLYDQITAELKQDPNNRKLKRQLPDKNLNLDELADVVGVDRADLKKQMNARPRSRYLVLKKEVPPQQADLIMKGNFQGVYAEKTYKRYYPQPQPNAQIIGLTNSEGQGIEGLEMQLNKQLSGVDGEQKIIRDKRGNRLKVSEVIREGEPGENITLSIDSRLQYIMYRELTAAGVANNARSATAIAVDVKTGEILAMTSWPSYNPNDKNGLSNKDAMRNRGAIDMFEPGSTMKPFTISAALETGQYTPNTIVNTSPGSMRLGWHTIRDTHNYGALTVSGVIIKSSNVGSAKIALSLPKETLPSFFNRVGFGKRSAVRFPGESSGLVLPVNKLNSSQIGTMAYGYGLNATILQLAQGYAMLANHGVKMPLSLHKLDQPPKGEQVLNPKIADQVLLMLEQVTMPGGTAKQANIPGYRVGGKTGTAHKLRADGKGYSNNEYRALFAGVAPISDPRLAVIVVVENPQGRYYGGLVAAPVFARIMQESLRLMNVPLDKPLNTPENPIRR
Method in brief: (§1)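 Purified PBP was preincubated with inhibitor (E. coli PBP3 1.5 μM, 30 min; P. aeruginosa PBP3 0.75 μM, A. baumannii PBP3 0.2 μM and PBP1a 1 μM, 15 min), then Bocillin-FL (0.1 μM; 0.05 μM for PBP1a) added and FP read up to 60 min. EC50 = 50% loss of bound probe.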

N. gonorrhoeae WHO K = experiment: Liquid broth MIC in Fastidious broth; conditions: Neisseria gonorrhoeae
P. aeruginosa ATCC 35151 = experiment: microbe, parasite or virus in culture; assay type: cell-based; conditions: Pseudomonas aeruginosa, ATCC35151, read-out: Minimum inhibitory concentration, P. aeruginosa ATCC 35151
[2] = test system: N. gonorrhoeae ATCC 49226; experiment: Liquid broth MIC in Fastidious broth; conditions: Neisseria gonorrhoeae
[3] = biological target: T2, PBP3 from Escherichia coli (K-12) (Escherichia coli, UniProt P0AD68); experiment: Bocillin-FL fluorescence polarization competition binding, E. coli PBP3
T2 construct: made in house
T2 sequence (P0AD68 1-577): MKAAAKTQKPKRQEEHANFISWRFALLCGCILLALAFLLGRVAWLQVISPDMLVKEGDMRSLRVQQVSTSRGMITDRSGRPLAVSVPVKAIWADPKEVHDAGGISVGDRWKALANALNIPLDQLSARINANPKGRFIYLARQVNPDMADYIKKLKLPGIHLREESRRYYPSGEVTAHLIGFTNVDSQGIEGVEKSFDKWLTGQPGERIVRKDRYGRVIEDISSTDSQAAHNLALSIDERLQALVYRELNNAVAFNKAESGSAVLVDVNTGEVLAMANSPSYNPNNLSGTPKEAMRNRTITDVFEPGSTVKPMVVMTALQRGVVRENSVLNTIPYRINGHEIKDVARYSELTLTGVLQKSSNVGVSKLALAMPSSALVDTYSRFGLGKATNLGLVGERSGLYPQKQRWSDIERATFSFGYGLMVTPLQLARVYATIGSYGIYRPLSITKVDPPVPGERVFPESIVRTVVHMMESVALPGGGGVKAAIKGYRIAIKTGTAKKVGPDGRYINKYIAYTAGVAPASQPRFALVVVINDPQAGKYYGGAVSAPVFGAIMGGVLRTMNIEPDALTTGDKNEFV
Method in brief: as §1

[4] = test system: P. aeruginosa (ΔmexAB-oprM); experiment: Broth microdilution MIC in iron-depleted CAMHB (IDM); assay type: cell-based; conditions: Pseudomonas aeruginosa; iron-depleted CAMHB (IDM); […]; read-out: Minimum inhibitory concentration, P. aeruginosa ΔmexAB-oprM
A. baumannii ATCC 17978 = experiment: microbe, parasite or virus in culture; assay type: cell-based; conditions: Acinetobacter baumannii, ATCC17978, read-out: MIC, A. baumannii ATCC 17978
P. aeruginosa CDC-0054 = experiment: microbe, parasite or virus in culture; assay type: cell-based; conditions: Pseudomonas aeruginosa, CDC0054, read-out: Minimum inhibitory concentration, P. aeruginosa CDC-0054
[5] = MS11, read-out: Minimum Inhibitory Concentration, MS11
[6] = read-out: Minimum Inhibitory Concentration, WHO Z
[7] = read-out: Minimum Inhibitory Concentration, WHO K
[8] = ATCC49226, read-out: Minimum Inhibitory Concentration, ATCC 49226
[9] = MS11, read-out: Minimum Inhibitory Concentration (MIC), N. gonorrhoeae MS11
[10] = read-out: Minimum Inhibitory Concentration (MIC), N. gonorrhoeae WHO Z
[11] = read-out: Minimum Inhibitory Concentration (MIC), N. gonorrhoeae WHO K
[12] = ATCC49226, read-out: Minimum Inhibitory Concentration (MIC), N. gonorrhoeae ATCC 49226

Compound | MIC (N. gonorrhoeae MS11; [5]) [µg/mL] | MIC (N. gonorrhoeae WHO Z; [6]) [µg/mL] | IC50 [1] [µM] | MIC (N. gonorrhoeae WHO K; [7]) [µg/mL] | MIC (P. aeruginosa ATCC 35151) [µg/mL] | MIC [2, 8] [µg/mL] | EC50 [3] [µM] | MIC [4] [µg/mL] | MIC (A. baumannii ATCC 17978) [µg/mL] | MIC (P. aeruginosa CDC-0054) [µg/mL] | MIC (N. gonorrhoeae MS11; [9]) [µg/mL] | MIC (N. gonorrhoeae WHO Z; [10]) [µg/mL] | MIC (N. gonorrhoeae WHO K; [11]) [µg/mL] | MIC [2, 12] [µg/mL]
O=C(O)c1c(F)ccc2c1OB(O)[C@@H](NC(=O)C(NC(=O)N1CCN(S(=O)(=O)CCCNC(=O)[C@@H]3CCCN3)C1=O)c1cc(F)c(O)c(O)c1Cl)C2 (stereo partly drawn) [Example 275, (3R)-3-(2-(2-chloro-5-fluoro-3,4-dihydroxyphenyl)-2-(2-oxo-3-((3-((S)-pyrrolidine-2-carboxamido)propyl)sulfonyl)imidazolidine-1-carboxamido)acetamido)-7-fluoro-2-hydroxy-3,4-dihydro-2H-benzo[e][1,2]oxaborinine-8-carboxylic acid] | 16 to 32 (≈ 20.7 to 41.4 µM) | 16 to 32 (≈ 20.7 to 41.4 µM) | < 10 | > 64 | < 1 | 16 to 32 (≈ 20.7 to 41.4 µM) | 10 to 50 | < 1 | < 1 | 8 to 16 (≈ 10.4 to 20.7 µM) |  |  |  | 
CN(CCN1CCN(C(=O)NC(C(=O)N[C@H]2Cc3ccc(F)c(C(=O)O)c3OB2O)c2cc(F)c(O)c(O)c2Cl)C(=O)C1=O)S(=O)(=O)c1ccc(C(N)=O)cc1 (stereo partly drawn) [Example 223, (3R)-3-(2-(4-(2-((4-carbamoyl-N-methylphenyl)sulfonamido)ethyl)-2,3-dioxopiperazine-1-carboxamido)-2-(2-chloro-5-fluoro-3,4-dihydroxyphenyl)acetamido)-7-fluoro-2-hydroxy-3,4-dihydro-2H-benzo[e][1,2]oxaborinine-8-carboxylic acid] |  |  | < 10 |  | < 1 |  | < 10 | < 1 | < 1 | 2 to 4 (≈ 2.43 to 4.86 µM) | 16 to 32 (≈ 19.4 to 38.9 µM) | 16 to 32 (≈ 19.4 to 38.9 µM) | > 64 | 16 to 32 (≈ 19.4 to 38.9 µM)
O=C(NCCCN1CCN(C(=O)N[C@@H](C(=O)N[C@H]2Cc3ccc(F)c(C(=O)O)c3OB2O)c2cc(F)c(O)c(O)c2Cl)C1=O)Nc1cccc(O)c1 [Example 258, (R)-3-((R)-2-(2-chloro-5-fluoro-3,4-dihydroxyphenyl)-2-(3-(3-(3-(3-hydroxyphenyl)ureido)propyl)-2-oxoimidazolidine-1-carboxamido)acetamido)-7-fluoro-2-hydroxy-3,4-dihydro-2H-benzo[e][1,2]oxaborinine-8-carboxylic acid] | 16 to 32 (≈ 21.4 to 42.8 µM) | 4 to 8 (≈ 5.36 to 10.7 µM) | < 10 | > 64 | < 1 | 4 to 8 (≈ 5.36 to 10.7 µM) | < 10 | < 1 | < 1 | < 1 |  |  |  | 
O=C(NCCCN1CCN(C(=O)NC(C(=O)N[C@H]2Cc3ccc(F)c(C(=O)O)c3OB2O)c2cc(F)c(O)c(O)c2Cl)C(=O)C1=O)Nc1ccncc1 (stereo partly drawn) [Example 228, (3R)-3-(2-(2-chloro-5-fluoro-3,4-dihydroxyphenyl)-2-(2,3-dioxo-4-(3-(3-(pyridin-4-yl)ureido)propyl)piperazine-1-carboxamido)acetamido)-7-fluoro-2-hydroxy-3,4-dihydro-2H-benzo[e][1,2]oxaborinine-8-carboxylic acid] |  |  | < 10 |  | < 1 |  | < 10 | < 1 | < 1 | < 1 | > 64 | > 64 | > 64 | > 64
O=C(NCCN1CCN(C(=O)NC(C(=O)N[C@H]2Cc3ccc(F)c(C(=O)O)c3OB2O)c2cc(F)c(O)c(O)c2Cl)C1=O)c1ccc(O)cc1 (stereo partly drawn) [Example 243, (3R)-3-(2-(2-chloro-5-fluoro-3,4-dihydroxyphenyl)-2-(3-(2-(4-hydroxybenzamido)ethyl)-2-oxoimidazolidine-1-carboxamido)acetamido)-7-fluoro-2-hydroxy-3,4-dihydro-2H-benzo[e][1,2]oxaborinine-8-carboxylic acid] |  |  | < 10 |  | < 1 |  | 10 to 50 | < 1 | < 1 | 2 to 4 (≈ 2.79 to 5.57 µM) | 16 to 32 (≈ 22.3 to 44.6 µM) | 16 to 32 (≈ 22.3 to 44.6 µM) | > 64 | 16 to 32 (≈ 22.3 to 44.6 µM)
O=C(CN1CCN(C(=O)N[C@@H](C(=O)N[C@H]2Cc3ccc(F)c(C(=O)O)c3OB2O)c2cc(F)c(O)c(O)c2Cl)C(=O)C1=O)NCc1nccs1 [Example 241, (R)-3-((R)-2-(2-chloro-5-fluoro-3,4-dihydroxyphenyl)-2-(2,3-dioxo-4-(2-oxo-2-((thiazol-2-ylmethyl)amino)ethyl)piperazine-1-carboxamido)acetamido)-7-fluoro-2-hydroxy-3,4-dihydro-2H-benzo[e][1,2]oxaborinine-8-carboxylic acid] |  |  | < 10 |  | < 1 |  | < 10 | < 1 | < 1 | < 1 | 16 to 32 (≈ 21.7 to 43.4 µM) | 16 to 32 (≈ 21.7 to 43.4 µM) | 16 to 32 (≈ 21.7 to 43.4 µM) | 4 to 8 (≈ 5.43 to 10.9 µM)
O=C(NCCCS(=O)(=O)N1CCN(C(=O)NC(C(=O)N[C@H]2Cc3ccc(F)c(C(=O)O)c3OB2O)c2cc(F)c(O)c(O)c2Cl)C1=O)c1nccs1 (stereo partly drawn) [Example 274, (3R)-3-(2-(2-chloro-5-fluoro-3,4-dihydroxyphenyl)-2-(2-oxo-3-((3-(thiazole-2-carboxamido)propyl)sulfonyl)imidazolidine-1-carboxamido)acetamido)-7-fluoro-2-hydroxy-3,4-dihydro-2H-benzo[e][1,2]oxaborinine-8-carboxylic acid] | 16 to 32 (≈ 20.3 to 40.7 µM) | 16 to 32 (≈ 20.3 to 40.7 µM) | < 10 | > 64 | < 1 | 16 to 32 (≈ 20.3 to 40.7 µM) | < 10 | < 1 | < 1 | 2 to 4 (≈ 2.54 to 5.08 µM) |  |  |  | 
CN(CCN1CCN(C(=O)NC(C(=O)N[C@H]2Cc3ccc(F)c(C(=O)O)c3OB2O)c2cc(F)c(O)c(O)c2Cl)C(=O)C1=O)S(=O)(=O)c1cccc(C(N)=O)c1 (stereo partly drawn) [Example 224, (3R)-3-(2-(4-(2-((3-carbamoyl-N-methylphenyl)sulfonamido)ethyl)-2,3-dioxopiperazine-1-carboxamido)-2-(2-chloro-5-fluoro-3,4-dihydroxyphenyl)acetamido)-7-fluoro-2-hydroxy-3,4-dihydro-2H-benzo[e][1,2]oxaborinine-8-carboxylic acid] |  |  | < 10 |  | < 1 |  | < 10 | < 1 | < 1 | 2 to 4 (≈ 2.43 to 4.86 µM) | > 64 | > 64 | > 64 | 16 to 32 (≈ 19.4 to 38.9 µM)
